# Measured values published in patent US10941157B2, “Pesticidal compositions and uses thereof” (Gilead Apollo, LLC, priority 2015, dated 2021).
# Read-outs that look alike come from different tables or passages of the source.
# Tests used:
# Format in all cases: cell-based
# [1] = system: Fusarium virguliforme (Fv); experiment: In vitro pathogen growth inhibition assay, Fv
# How it was run: (§1)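 Value reported is the compound concentration reaching ≥90% growth inhibition, from OD readings at 24 and 48 h after blank subtraction, confirmed visually. Inoculum was spores diluted in 17% V8 medium, except Rs, using 1.5 mm mycelial plugs in ¼ PDB; actual compound concentration corrected via OD600.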
# [2] = system: Fusarium moniliforme (Fm); experiment: In vitro pathogen growth inhibition assay, Fm; conditions: Fusarium verticillioides
# How it was run: (§2)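 Spores in 17% V8 liquid medium, or 1.5 mm Rs mycelial plugs in ¼ PDB, incubated with compound; final concentration checked by OD600 for precipitation. OD readings at 24 and 48 h, blank-subtracted, plus visual ratings; value is concentration giving ≥90% growth inhibition.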
# [3] = system: Collectotrichum graminicola (Cg); experiment: In vitro pathogen growth inhibition assay, Cg; conditions: 48 h
# How it was run: as §2
# Rhizoctonia solani (Rs) = experiment: In vitro pathogen growth inhibition assay, Rs (mycelial plugs); conditions: Rhizoctonia solani, 48 h
# How it was run: as §1
# Botrtyis cinerea (Bc) = experiment: In vitro pathogen growth inhibition assay, Bc; conditions: 48 h
# How it was run: as §2
# Diplodia maydis (Dm) = experiment: In vitro pathogen growth inhibition assay, Dm; conditions: Stenocarpella maydis, 48 h
# How it was run: as §1
# Septoria tritici (St) = experiment: In vitro pathogen growth inhibition assay, St; conditions: Zymoseptoria tritici, 48 h
# How it was run: as §2
# [4] = system: Phytophthora capsici (Pc); experiment: In vitro pathogen growth inhibition assay, Pc; conditions: 48 h
# How it was run: as §1
# [5] = ≥90% growth inhibition, 48 hours, vs 2% DMSO control, read-out: Compound Concentration (ppm) sufficient for ≥90% inhibition of Fv
# [6] = ≥90% growth inhibition, 48 hours, vs 2% DMSO control, read-out: Compound Concentration (ppm) sufficient for ≥90% inhibition of Fm
# [7] = ≥90% growth inhibition, 48 hours, vs 2% DMSO control, read-out: Compound Concentration (ppm) sufficient for ≥90% inhibition of Cg
# [8] = ≥90% growth inhibition, mycelial plugs, 48 hours, vs 2% DMSO control, read-out: Compound Concentration (ppm) sufficient for ≥90% inhibition of Rs
# [9] = ≥90% growth inhibition, 48 hours, vs 2% DMSO control, read-out: Compound Concentration (ppm) sufficient for ≥90% inhibition of Bc
# [10] = ≥90% growth inhibition, 48 hours, vs 2% DMSO control, read-out: Compound Concentration (ppm) sufficient for ≥90% inhibition of Dm
# [11] = ≥90% growth inhibition, 48 hours, vs 2% DMSO control, read-out: Compound Concentration (ppm) sufficient for ≥90% inhibition of St
# [12] = ≥90% growth inhibition, 48 hours, vs 2% DMSO control, read-out: Compound Concentration (ppm) sufficient for ≥90% inhibition of Pc
# [13] = ≥90% inhibition, 48 hours vs 2% DMSO control, read-out: Compound Concentration (ppm) sufficient for ≥90% inhibition of growth, Fv
# [14] = ≥90% inhibition, 48 hours vs 2% DMSO control, read-out: Compound Concentration (ppm) sufficient for ≥90% inhibition of growth, Fm
# [15] = ≥90% inhibition, 48 hours vs 2% DMSO control, read-out: Compound Concentration (ppm) sufficient for ≥90% inhibition of growth, Cg
# [16] = ≥90% inhibition, mycelial plugs, 48 hours vs 2% DMSO control, read-out: Compound Concentration (ppm) sufficient for ≥90% inhibition of growth, Rs
# [17] = ≥90% inhibition, 48 hours vs 2% DMSO control, read-out: Compound Concentration (ppm) sufficient for ≥90% inhibition of growth, Bc
# [18] = ≥90% inhibition, 48 hours vs 2% DMSO control, read-out: Compound Concentration (ppm) sufficient for ≥90% inhibition of growth, Dm
# [19] = ≥90% inhibition, 48 hours vs 2% DMSO control, read-out: Compound Concentration (ppm) sufficient for ≥90% inhibition of growth, St
# [20] = ≥90% inhibition, 48 hours vs 2% DMSO control, read-out: Compound Concentration (ppm) sufficient for ≥90% inhibition of growth, Pc
smiles,measurement,setting,value
Cc1c(-n2nccn2)sc2c1c(=O)n(C(C)(C)C(=O)NC(C)C)c(=O)n2C[C@H](OCCO)c1cc(F)ccc1O [Compound I-271],IC90,[1]; [5],10 µg/mL
same,IC90,[2]; [6],2 µg/mL
same,IC90,[3]; [7],≥ 10 µg/mL
same,IC90,Rhizoctonia solani (Rs); [8],2 µg/mL
same,IC90,Botrtyis cinerea (Bc); [9],10 µg/mL
same,IC90,Diplodia maydis (Dm); [10],50 µg/mL
same,IC90,Septoria tritici (St); [11],> 50 µg/mL
same,IC90,[4]; [12],50 µg/mL
CCOC(=O)C(C)(C)n1c(=O)c2c(C)c(-n3nccn3)sc2n(C[C@H](OCCO)c2cc(F)ccc2OC)c1=O [Compound I-085],IC90,[1]; [13],0.4 µg/mL
same,IC90,[2]; [14],0.08 µg/mL
same,IC90,[3]; [15],0.4 µg/mL
same,IC90,Rhizoctonia solani (Rs); [16],0.08 µg/mL
same,IC90,Botrtyis cinerea (Bc); [17],> 0.08 µg/mL
same,IC90,Diplodia maydis (Dm); [18],0.4 µg/mL
same,IC90,Septoria tritici (St); [19],≥ 10 µg/mL
same,IC90,[4]; [20],> 50 µg/mL
COc1ccccc1[C@H](Cn1c(=O)n(C(C)(C)C(N)=O)c(=O)c2c(C)c(-n3nccn3)sc21)OC1CCOCC1 [Compound I-031],IC90,[1]; [13],10 µg/mL
same,IC90,[2]; [14],0.08 µg/mL
same,IC90,[3]; [15],10 µg/mL
same,IC90,Rhizoctonia solani (Rs); [16],10 µg/mL
same,IC90,Botrtyis cinerea (Bc); [17],2 µg/mL
same,IC90,Diplodia maydis (Dm); [18],10 µg/mL
same,IC90,Septoria tritici (St); [19],> 50 µg/mL
same,IC90,[4]; [20],> 50 µg/mL
COc1ccc(F)cc1[C@H](Cn1c(=O)n(C(C)(C)C(=O)N2CCCC2)c(=O)c2c(C)c(-n3cccn3)sc21)OC1CCOCC1 [Compound I-045],IC90,[1]; [13],10 µg/mL
same,IC90,[2]; [14],0.08 µg/mL
same,IC90,[3]; [15],≥ 0.4 µg/mL
same,IC90,Rhizoctonia solani (Rs); [16],2 µg/mL
same,IC90,Botrtyis cinerea (Bc); [17],2 µg/mL
same,IC90,Diplodia maydis (Dm); [18],≥ 2 µg/mL
same,IC90,Septoria tritici (St); [19],> 50 µg/mL
same,IC90,[4]; [20],> 50 µg/mL
COCCO[C@@H](Cn1c(=O)n(C(C)(C)C(=O)NC2CCCCC2)c(=O)c2c(C)c(-n3cccn3)sc21)c1cc(F)ccc1OC [Compound I-293],IC90,[1]; [5],50 µg/mL
same,IC90,[2]; [6],2 µg/mL
same,IC90,[3]; [7],> 50 µg/mL
same,IC90,Rhizoctonia solani (Rs); [8],> 50 µg/mL
same,IC90,Botrtyis cinerea (Bc); [9],10 µg/mL
same,IC90,Diplodia maydis (Dm); [10],> 50 µg/mL
same,IC90,Septoria tritici (St); [11],> 50 µg/mL
same,IC90,[4]; [12],> 50 µg/mL
CC(=O)Oc1ccc(F)cc1[C@@H](Cn1c(=O)n(C(C)(C)C(=O)NC(C)C)c(=O)c2c(C)c(-n3nccn3)sc21)OCCC#N [Compound I-334],IC90,"[1]; concentration sufficient to ≥90% inhibition of growth, 48 hours vs 2% DMSO control, read-out: Compound Concentration (ppm) for ≥90% inhibition, Fv",> 50 µg/mL
same,IC90,"[2]; concentration sufficient to ≥90% inhibition of growth, 48 hours vs 2% DMSO control, read-out: Compound Concentration (ppm) for ≥90% inhibition, Fm",50 µg/mL
same,IC90,"[3]; concentration sufficient to ≥90% inhibition of growth, 48 hours vs 2% DMSO control, read-out: Compound Concentration (ppm) for ≥90% inhibition, Cg",> 50 µg/mL
same,IC90,"Rhizoctonia solani (Rs); concentration sufficient to ≥90% inhibition of growth, 48 hours vs 2% DMSO control, read-out: Compound Concentration (ppm) for ≥90% inhibition, Rs",> 50 µg/mL
same,IC90,"Botrtyis cinerea (Bc); concentration sufficient to ≥90% inhibition of growth, 48 hours vs 2% DMSO control, read-out: Compound Concentration (ppm) for ≥90% inhibition, Bc",> 50 µg/mL
same,IC90,"Diplodia maydis (Dm); concentration sufficient to ≥90% inhibition of growth, 48 hours vs 2% DMSO control, read-out: Compound Concentration (ppm) for ≥90% inhibition, Dm",> 50 µg/mL
same,IC90,"Septoria tritici (St); concentration sufficient to ≥90% inhibition of growth, 48 hours vs 2% DMSO control, read-out: Compound Concentration (ppm) for ≥90% inhibition, St",> 50 µg/mL
same,IC90,"[4]; concentration sufficient to ≥90% inhibition of growth, 48 hours vs 2% DMSO control, read-out: Compound Concentration (ppm) for ≥90% inhibition, Pc",> 50 µg/mL
COc1ccccc1[C@H](Cn1c(=O)n(C(C)(C)C(=O)NC2CCC2)c(=O)c2c(C)c(-n3nccn3)sc21)OC1CCOCC1 [Compound I-042],IC90,[1]; [13],0.4 µg/mL
same,IC90,[2]; [14],0.08 µg/mL
same,IC90,[3]; [15],≥ 0.4 µg/mL
same,IC90,Rhizoctonia solani (Rs); [16],0.08 µg/mL
same,IC90,Botrtyis cinerea (Bc); [17],0.4 µg/mL
same,IC90,Diplodia maydis (Dm); [18],≥ 0.4 µg/mL
same,IC90,Septoria tritici (St); [19],≥ 10 µg/mL
same,IC90,[4]; [20],≥ 10 µg/mL
COc1ccc(F)cc1[C@H](Cn1c(=O)n([C@H](C)C(=O)NC(C)C)c(=O)c2c(C)c(-n3nccn3)sc21)OCCO [Compound I-097],IC90,[1]; [13],2 µg/mL
same,IC90,[2]; [14],0.08 µg/mL
same,IC90,[3]; [15],50 µg/mL
same,IC90,Rhizoctonia solani (Rs); [16],2 µg/mL
same,IC90,Botrtyis cinerea (Bc); [17],0.4 µg/mL
same,IC90,Diplodia maydis (Dm); [18],≥ 2 µg/mL
same,IC90,Septoria tritici (St); [19],> 50 µg/mL
same,IC90,[4]; [20],> 50 µg/mL
COc1ccccc1[C@H](Cn1c(=O)n([C@H](C)C(=O)N(C)C(C)C)c(=O)c2c(C)c(-n3cccn3)sc21)OCCC#N [Compound I-242],IC90,[1]; [5],2 µg/mL
same,IC90,[2]; [6],0.4 µg/mL
same,IC90,[3]; [7],2 µg/mL
same,IC90,Rhizoctonia solani (Rs); [8],2 µg/mL
same,IC90,Botrtyis cinerea (Bc); [9],2 µg/mL
same,IC90,Diplodia maydis (Dm); [10],2 µg/mL
same,IC90,Septoria tritici (St); [11],≥ 50 µg/mL
same,IC90,[4]; [12],> 50 µg/mL
COc1ccc(F)cc1[C@H](Cn1c(=O)n(C(C)(C)C(=O)N2CCCC2)c(=O)c2c(C)c(-n3nccn3)sc21)OC1CCC(=O)CC1 [Compound I-051],IC90,[1]; [13],0.4 µg/mL
same,IC90,[2]; [14],0.08 µg/mL
same,IC90,[3]; [15],0.4 µg/mL
same,IC90,Rhizoctonia solani (Rs); [16],0.4 µg/mL
same,IC90,Botrtyis cinerea (Bc); [17],0.4 µg/mL
same,IC90,Diplodia maydis (Dm); [18],≥ 0.4 µg/mL
same,IC90,Septoria tritici (St); [19],> 50 µg/mL
same,IC90,[4]; [20],> 50 µg/mL
